# Tested on: Transport facilitation protein genes
# Assay: DNA chip mRNA expression in yeast, transport facilitation protein genes (Table 5)
# Type: cell-based, Saccharomyces cerevisiae S288C
# Outline: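 Untreated cultures served as reference for log-phase S288C yeast given a growth-inhibiting, non-lethal toxicant dose for 2 h at 25° C. in YPD. Gene expression was measured on a whole-genome DNA chip from Cy3/Cy5-labeled cDNA.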
smiles,measurement,setting,value
"C=CC=O [(14), acrolein]",The level of expressed mRNA in the presence of chemical substance/The level of expressed mRNA in the absence of chemical substance,yeast gene YHL035C,0.8
same,The level of expressed mRNA in the presence of chemical substance/The level of expressed mRNA in the absence of chemical substance,yeast gene YHL040C,1.1
same,The level of expressed mRNA in the presence of chemical substance/The level of expressed mRNA in the absence of chemical substance,yeast gene YHL047C,0.5
same,The level of expressed mRNA in the presence of chemical substance/The level of expressed mRNA in the absence of chemical substance,yeast gene YHR026W,1.3
same,The level of expressed mRNA in the presence of chemical substance/The level of expressed mRNA in the absence of chemical substance,yeast gene YHR092C,1.6
same,The level of expressed mRNA in the presence of chemical substance/The level of expressed mRNA in the absence of chemical substance,yeast gene YHR094C,0.6
same,The level of expressed mRNA in the presence of chemical substance/The level of expressed mRNA in the absence of chemical substance,yeast gene YHR175W,0.7
same,The level of expressed mRNA in the presence of chemical substance/The level of expressed mRNA in the absence of chemical substance,yeast gene YIL006W,1.0
same,The level of expressed mRNA in the presence of chemical substance/The level of expressed mRNA in the absence of chemical substance,yeast gene YIL022W,0.6
same,The level of expressed mRNA in the presence of chemical substance/The level of expressed mRNA in the absence of chemical substance,yeast gene YIL056W,1.0
same,The level of expressed mRNA in the presence of chemical substance/The level of expressed mRNA in the absence of chemical substance,yeast gene YIL088C,1.2
same,The level of expressed mRNA in the presence of chemical substance/The level of expressed mRNA in the absence of chemical substance,yeast gene YJL034W,0.6
same,The level of expressed mRNA in the presence of chemical substance/The level of expressed mRNA in the absence of chemical substance,yeast gene YJL212C,0.8
same,The level of expressed mRNA in the presence of chemical substance/The level of expressed mRNA in the absence of chemical substance,yeast gene YJL219W,1.1
same,The level of expressed mRNA in the presence of chemical substance/The level of expressed mRNA in the absence of chemical substance,yeast gene YJR077C,0.7
same,The level of expressed mRNA in the presence of chemical substance/The level of expressed mRNA in the absence of chemical substance,yeast gene YJR106W,0.9
same,The level of expressed mRNA in the presence of chemical substance/The level of expressed mRNA in the absence of chemical substance,yeast gene YJR121W,0.7
same,The level of expressed mRNA in the presence of chemical substance/The level of expressed mRNA in the absence of chemical substance,yeast gene YKL016C,1.6
same,The level of expressed mRNA in the presence of chemical substance/The level of expressed mRNA in the absence of chemical substance,yeast gene YKL146W,1.0
same,The level of expressed mRNA in the presence of chemical substance/The level of expressed mRNA in the absence of chemical substance,yeast gene YKL221W,1.4
same,The level of expressed mRNA in the presence of chemical substance/The level of expressed mRNA in the absence of chemical substance,yeast gene YKR039W,1.2
same,The level of expressed mRNA in the presence of chemical substance/The level of expressed mRNA in the absence of chemical substance,yeast gene YKR067W,1.3
same,The level of expressed mRNA in the presence of chemical substance/The level of expressed mRNA in the absence of chemical substance,yeast gene YLL028W,0.7
same,The level of expressed mRNA in the presence of chemical substance/The level of expressed mRNA in the absence of chemical substance,yeast gene YLR081W,1.0
same,The level of expressed mRNA in the presence of chemical substance/The level of expressed mRNA in the absence of chemical substance,yeast gene YLR092W,1.4
same,The level of expressed mRNA in the presence of chemical substance/The level of expressed mRNA in the absence of chemical substance,yeast gene YLR295C,1.2
same,The level of expressed mRNA in the presence of chemical substance/The level of expressed mRNA in the absence of chemical substance,yeast gene YLR348C,1.0
same,The level of expressed mRNA in the presence of chemical substance/The level of expressed mRNA in the absence of chemical substance,yeast gene YLR378C,0.4
same,The level of expressed mRNA in the presence of chemical substance/The level of expressed mRNA in the absence of chemical substance,yeast gene YMR011W,0.6
same,The level of expressed mRNA in the presence of chemical substance/The level of expressed mRNA in the absence of chemical substance,yeast gene YMR162C,1.0
same,The level of expressed mRNA in the presence of chemical substance/The level of expressed mRNA in the absence of chemical substance,yeast gene YMR203W,0.7
same,The level of expressed mRNA in the presence of chemical substance/The level of expressed mRNA in the absence of chemical substance,yeast gene YNL055C,0.9
same,The level of expressed mRNA in the presence of chemical substance/The level of expressed mRNA in the absence of chemical substance,yeast gene YNL259C,1.4
same,The level of expressed mRNA in the presence of chemical substance/The level of expressed mRNA in the absence of chemical substance,yeast gene YNR072W,1.0
same,The level of expressed mRNA in the presence of chemical substance/The level of expressed mRNA in the absence of chemical substance,yeast gene YOL119C,2.4
same,The level of expressed mRNA in the presence of chemical substance/The level of expressed mRNA in the absence of chemical substance,yeast gene YOL156W,0.9
same,The level of expressed mRNA in the presence of chemical substance/The level of expressed mRNA in the absence of chemical substance,yeast gene YOL163W,1.2
same,The level of expressed mRNA in the presence of chemical substance/The level of expressed mRNA in the absence of chemical substance,yeast gene YOR035C,0.9
same,The level of expressed mRNA in the presence of chemical substance/The level of expressed mRNA in the absence of chemical substance,yeast gene YOR130C,1.3
same,The level of expressed mRNA in the presence of chemical substance/The level of expressed mRNA in the absence of chemical substance,yeast gene YOR153W,0.3
same,The level of expressed mRNA in the presence of chemical substance/The level of expressed mRNA in the absence of chemical substance,yeast gene YOR270C,0.7
same,The level of expressed mRNA in the presence of chemical substance/The level of expressed mRNA in the absence of chemical substance,yeast gene YOR273C,0.5
same,The level of expressed mRNA in the presence of chemical substance/The level of expressed mRNA in the absence of chemical substance,yeast gene YOR316C,1.0
same,The level of expressed mRNA in the presence of chemical substance/The level of expressed mRNA in the absence of chemical substance,yeast gene YOR328W,0.8
same,The level of expressed mRNA in the presence of chemical substance/The level of expressed mRNA in the absence of chemical substance,yeast gene YOR332W,1.1
same,The level of expressed mRNA in the presence of chemical substance/The level of expressed mRNA in the absence of chemical substance,yeast gene YOR348C,1.2
same,The level of expressed mRNA in the presence of chemical substance/The level of expressed mRNA in the absence of chemical substance,yeast gene YPL036W,0.6
same,The level of expressed mRNA in the presence of chemical substance/The level of expressed mRNA in the absence of chemical substance,yeast gene YPL134C,1.4
same,The level of expressed mRNA in the presence of chemical substance/The level of expressed mRNA in the absence of chemical substance,yeast gene YPL224C,1.4
same,The level of expressed mRNA in the presence of chemical substance/The level of expressed mRNA in the absence of chemical substance,yeast gene YPL265W,1.1
same,The level of expressed mRNA in the presence of chemical substance/The level of expressed mRNA in the absence of chemical substance,yeast gene YPL271W,1.3
same,The level of expressed mRNA in the presence of chemical substance/The level of expressed mRNA in the absence of chemical substance,yeast gene YPR124W,0.4
same,The level of expressed mRNA in the presence of chemical substance/The level of expressed mRNA in the absence of chemical substance,yeast gene YPR192W,0.7
same,The level of expressed mRNA in the presence of chemical substance/The level of expressed mRNA in the absence of chemical substance,yeast gene YPR194C,1.0

# Reference: patent publication US8192962B2, “Processes for detecting toxic substances” (Daikin Industries, Ltd., priority 2001, dated 2012)
